Earlier results in patent US20060275215A1, “Novel imaging agents” (priority 2003, published 2006).

How the values were obtained:
caspase-3 = molecular target: T1, caspase-3 (Homo sapiens, UniProt P42574)
T1 sequence (P42574 29-175 limits assumed): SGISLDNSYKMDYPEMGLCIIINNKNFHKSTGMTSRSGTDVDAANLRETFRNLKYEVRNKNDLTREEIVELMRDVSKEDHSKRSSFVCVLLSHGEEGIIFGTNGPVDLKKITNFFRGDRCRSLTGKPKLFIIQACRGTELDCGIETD
T1 sequence (P42574 176-277 limits assumed): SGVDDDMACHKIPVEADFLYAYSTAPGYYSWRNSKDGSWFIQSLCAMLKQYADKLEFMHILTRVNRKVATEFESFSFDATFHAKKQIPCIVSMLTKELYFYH

[1] = labelled with the radioisotope 131I
[2] = tested on: phosphatidylserine (PS) on the outer membrane of apoptotic cells; conditions: binding to phosphatidylserine on outer membrane of apoptotic cells; read-out: affinity

IC50 for caspase-3 (caspase-3)	Compound	other results
low nanomolar range	CCOc1ccc(OCC(=O)OC)cc1CC(=O)NC(C(=O)NC(CC(=O)O)C(=O)CSCc1c(F)cccc1Cl)C(C)C (stereo not drawn) [Compound 6A]	
low nanomolar range	CCOc1ccc(S(C)(=O)=O)cc1CC(=O)NC(C(=O)NC(CC(=O)O)C(=O)CSCc1c(F)cccc1Cl)C(C)C (stereo not drawn) [Compound 6C]	
	benzyloxycarbonyl-Val-Ala-DL-Asp(O-methyl)-fluoromethylketone [Z-VAD-fmk]	absolute cellular uptake [1]: low
low nanomolar range	CCOc1ccc(OCC(=O)O)cc1CC(=O)NC(C(=O)NC(CC(=O)O)C(=O)CSCc1c(F)cccc1Cl)C(C)C (stereo not drawn) [6A′]	
	Annexin-5: endogenous human protein (RMM 36 kDa) which binds to phosphatidylserine	Kd [2]: ~1 nM
low nanomolar range	CCOc1ccc(OCC(=O)OC(C)C)cc1CC(=O)NC(C(=O)NC(CC(=O)O)C(=O)CSCc1c(F)cccc1Cl)C(C)C (stereo not drawn) [Compound 6B]	
